Consider one substance from patent US20250114337A1, “METHODS FOR VASCULAR REGENERATION AND WOUND TREATMENT” (THE METHODIST HOSPITAL, priority 2022, published 2025).

“Also recorded” adds a separate entry of the source. Where two headings read alike, the source gives them in different places.

Experiment [1] deals with UDP-GlcNAc. Briefly: LC-MS-based metabolomic analysis of fibroblasts undergoing transdifferentiation. To be noted: 30 ng/ml Poly I:C with induction medium, 0, 1, 3 days. The class given is cell-based, human. The procedure:
(§1) Cellular O-GlcNAcylation is elevated during transdifferentiation. […] TLR3 activation increases DNA accessibility and facilitates transdifferentiation. Other forms of inflammatory activation also increase DNA accessibility (as with RIG1 activation). […] To determine if the increase in UDP-GlcNAc is associated with an increase in O-GlcNAcylation, cells were treated with PolyI:C or vehicle for 3 days, then the O-GlcNAcylated proteins in the nuclear (N), cytoplasmic (C), or whole-cell (W) lysates were enzymatically labeled with azido-modified galactose (GalNAz), which were further detected by click-it chemistry using a biotinylated alkyne and Western.
To profile the global metabolic changes during transdifferentiation, untargeted metabolomics with BJ human fibroblast cells undergoing transdifferentiation protocol was performed and treated with 30 ng/ml Poly I:C with the induction medium for 0, 1, and 3 days. Over 100 metabolites were identified from the LC-MS-based metabolomic analysis. […] UDP-GlcNAc is the substrate for O-GlcNAcylation and is the end-product of the hexosamine biosynthesis pathway (HBP).

For experiment [2], the system named is O-GlcNAcylated proteins. In words: Click-it O-GlcNAc enzymatic labeling and detection assay. To be noted: 3 days vs vehicle, nuclear, cytoplasmic, whole-cell lysates. It is filed as cell-based. The procedure:
as §1
To determine if the increase in UDP-GlcNAc is associated with an increase in O-GlcNAcylation, cells were treated with Poly I:C or vehicle for 3 days, then the O-GlcNAcylated proteins in the nuclear (N), cytoplasmic (C), or whole-cell (W) lysates were enzymatically labeled with azido-modified galactose (GalNAz), which were further detected by click-it chemistry using a biotinylated alkyne and Western.

Experiment [3] relates to accessible chromatin. Briefly: ATAC seq chromatin accessibility in fibroblasts. The class given is cell-based. The text has this: Chromatin accessibility mapping is a powerful approach to identify sites of open chromatin (i.e. to infer sites of active transcription). In ATAC-seq, a Tn5 transposase inserts sequencing adapters into accessible DNA (‘tagmentation’). […] In the right panel, exposure of the fibroblasts to polyIC increases the average length (KB) of open chromatin.
Identify the role of O-GlcNAcylation in DNA accessibility. […] However, it is unknown if this occurs during transdifferentiation of fibroblasts to iECs. […] To test if O-GlcNAcylation controls this process.

Experiment [4] has as its system H3.3 deposition. Briefly: H3.3-SNAP tagging, quench-chase-pulse TMR-Star labeling. The class given is cell-based. To be noted: vs control. The text has this: To identify the role of O-GlcNAcylation of histone variant h3.3 chaperone protein, HIRA, on transdifferentiation. The effects of O-GlcNAcylation on proteins that may be involved in the epigenetic regulation of transdifferentiation can be assessed. Nucleosome turnover is known to be tightly interrelated with DNA accessibility, and histone variant h3.3 is a hallmark of regulatory regions in the mammalian genome and is required to establish open chromatins. HIRA is the chaperone for h3.3, it forms a complex with other subunits, including ASF1. UBN, and CABIN, and is responsible for h3.3 deposition on the chromatin. OGT interacts with and O-GlcNAcylates HIRA, both of which are critical for the formation of the HIRA-h3.3 complex and h3.3 deposition and its dependent gene activation. […] The role of HIRA in transdifferentiation with fibroblasts that have HIRA knocked down or overexpressed can be determined. […] Thereafter, the de novo deposited SNAP-h3.3 will be pulse-labeled with the TMR-Star, which is a readily detectable and quantifiable red-fluorescent substrate. […]
To test whether innate immune activation enhances the H3.3 deposition in the chromatin, the H3.3-SNAP tagging system was generated where the newly synthesized H3.3 will be detected by fluorescent TMR-Star labeling with quench-chase-pulse strategy.

Experiment [5] has as its system HIRA-H3.3 complex. Briefly: immunoprecipitation using HIRA antibody. It is filed as cell-based. To be noted: after Poly I:C treatment. The text has this: The histone variant h3.3 is a replacement for its canonical form of h3.1 and h3.2 in the nucleosome. Its deposition is usually associated with transcription activation and enhanced DNA accessibility. The complex that is responsible for h3.3 deposition is called HIRA complex which consists of HIRA. UBN, and cabin as the histone chaperone proteins. The HIRA O-GlcNAcylation is known to be critical for its function in H3.3 deposition. During the vascular recovery in the WT mice, the level of HIRA complex subunits, including ASFIA. HIRA. UBN, as well as the H3.3 deposition are increased (FIG. 22A). The HIRA-H3.3 pathway in the fibroblast progeny cells is activated, especially in the limbs recovering from ischemia 3- and 7-days post-surgery compared with the non-YFP+ cells (FIG. 22B). […] An in vitro system to test whether the HIRA-H3.3 pathway is activated during transdifferentiation was used.

In experiment [6] the test system is BJ fibroblasts. To be noted: PolyI:C alone, without endothelial growth factors; cited from earlier work.
In experiment [7] the test system is MEFs. To be noted: Chanda et al. 2019; cited from earlier work.

With “Polyinosinic:polycytidylic acid [PolyI:C]”, the UDP-GlcNAc level result in experiment [1] is on record as “highly elevated; also recorded: up-regulated”; in experiment [1] (listed as Poly I:C), “consistently increases”. The O-GlcNAcylation entry in experiment [2] was “elevation primarily occurs in nuclear proteins; also recorded: augmentation”; in experiment [2] (listed as Poly I:C) it was “elevation”. Also, the figures for the “chromatin accessibility (open chromatin around TSS)” value in experiment [3] and in experiment [3] (listed as polyIC) were “more accessible chromatin regions” and “increases”, respectively. For the same substance, the H3.3 deposition entry in experiment [4] is “enhances”. The “HIRA interaction with UBN and H3.3” value in experiment [5] is listed as “enhanced”. The “transdifferentiation of fibroblasts to endothelial cells” value in experiment [6] is given as “does not occur”. Further, the DNA accessibility result in experiment [7] was “enhances”.
